Reference: patent publication US8192962B2, “Processes for detecting toxic substances” (Daikin Industries, Ltd., priority 2001, dated 2012)

System: Metabolism protein genes
Test: DNA chip mRNA expression in yeast, metabolism protein genes (Table 7)
Assay type: cell-based, Saccharomyces cerevisiae S288C
Summary of the method: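 Value is the scanned fluorescence intensity ratio of exposed versus chemical-free cells. Log-phase S288C yeast in YPD at 25° C. received one toxic substance for two hours, dosed to slow growth without killing; Cy3/Cy5-labeled cDNA from oligo-dT-purified mRNA was hybridized to a whole-genome chip at 65° C.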

CCCCCCCCCCCCOS(=O)(=O)[O-].[Na+] [(18), sodium lauryl sulfate]
The level of expressed mRNA in the presence of chemical substance/The level of expressed mRNA in the absence of chemical substance (yeast gene YKL035W): 1.9 | level of expressed mRNA in the presence/in the absence of chemical substance (yeast gene YKL060C): 1.7 | The level of expressed mRNA in the presence of chemical substance/The level of expressed mRNA in the absence of chemical substance (yeast gene YKL091C): 2.0 | The level of expressed mRNA in the presence of chemical substance/The level of expressed mRNA in the absence of chemical substance (yeast gene YKL104C): 1.1 | level of expressed mRNA in the presence/in the absence of chemical substance (yeast gene YKL148C): 1.0 | The level of expressed mRNA in the presence of chemical substance/The level of expressed mRNA in the absence of chemical substance (yeast gene YKL152C): 1.7 | level of expressed mRNA in the presence/in the absence of chemical substance (yeast gene YKL157W): 1.5 | The level of expressed mRNA in the presence of chemical substance/The level of expressed mRNA in the absence of chemical substance (yeast gene YKL213C): 1.6 | The level of expressed mRNA in the presence of chemical substance/The level of expressed mRNA in the absence of chemical substance (yeast gene YKL215C): 0.9 | The level of expressed mRNA in the presence of chemical substance/The level of expressed mRNA in the absence of chemical substance (yeast gene YKR009C): 2.5 | level of expressed mRNA in the presence/in the absence of chemical substance (yeast gene YKR034W): 1.0 | The level of expressed mRNA in the presence of chemical substance/The level of expressed mRNA in the absence of chemical substance (yeast gene YKR039W): 1.1 | The level of expressed mRNA in the presence of chemical substance/The level of expressed mRNA in the absence of chemical substance (yeast gene YLL058W): 1.3 | level of expressed mRNA in the presence/in the absence of chemical substance (yeast gene YLR006C): 1.0 | level of expressed mRNA in the presence/in the absence of chemical substance (yeast gene YLR044C): 0.9 | level of expressed mRNA in the presence/in the absence of chemical substance (yeast gene YLR056W): 1.1 | level of expressed mRNA in the presence/in the absence of chemical substance (yeast gene YLR058C): 0.8 | level of expressed mRNA in the presence/in the absence of chemical substance (yeast gene YLR081W): 0.9 | level of expressed mRNA in the presence/in the absence of chemical substance (yeast gene YLR089C): 1.3 | The level of expressed mRNA in the presence of chemical substance/The level of expressed mRNA in the absence of chemical substance (yeast gene YLR180W): 0.7 | The level of expressed mRNA in the presence of chemical substance/The level of expressed mRNA in the absence of chemical substance (yeast gene YLR273C): 1.0 | level of expressed mRNA in the presence/in the absence of chemical substance (yeast gene YLR284C): 8.1 | The level of expressed mRNA in the presence of chemical substance/The level of expressed mRNA in the absence of chemical substance (yeast gene YLR299W): 1.4 | The level of expressed mRNA in the presence of chemical substance/The level of expressed mRNA in the absence of chemical substance (yeast gene YLR300W): 0.5 | level of expressed mRNA in the presence/in the absence of chemical substance (yeast gene YLR304C): 0.7 | The level of expressed mRNA in the presence of chemical substance/The level of expressed mRNA in the absence of chemical substance (yeast gene YLR307W): 1.0 | The level of expressed mRNA in the presence of chemical substance/The level of expressed mRNA in the absence of chemical substance (yeast gene YLR348C): 1.0 | level of expressed mRNA in the presence/in the absence of chemical substance (yeast gene YLR354C): 1.5 | level of expressed mRNA in the presence/in the absence of chemical substance (yeast gene YLR372W): 0.6 | level of expressed mRNA in the presence/in the absence of chemical substance (yeast gene YML022W): 0.7 | The level of expressed mRNA in the presence of chemical substance/The level of expressed mRNA in the absence of chemical substance (yeast gene YML054C): 1.6 | The level of expressed mRNA in the presence of chemical substance/The level of expressed mRNA in the absence of chemical substance (yeast gene YML070W): 1.3 | The level of expressed mRNA in the presence of chemical substance/The level of expressed mRNA in the absence of chemical substance (yeast gene YML100W): 1.5 | The level of expressed mRNA in the presence of chemical substance/The level of expressed mRNA in the absence of chemical substance (yeast gene YMR008C): 1.9 | level of expressed mRNA in the presence/in the absence of chemical substance (yeast gene YMR011W): 1.6 | level of expressed mRNA in the presence/in the absence of chemical substance (yeast gene YMR015C): 1.0 | The level of expressed mRNA in the presence of chemical substance/The level of expressed mRNA in the absence of chemical substance (yeast gene YMR020W): 2.2 | The level of expressed mRNA in the presence of chemical substance/The level of expressed mRNA in the absence of chemical substance (yeast gene YMR081C): 3.0 | level of expressed mRNA in the presence/in the absence of chemical substance (yeast gene YMR083W): 1.1 | The level of expressed mRNA in the presence of chemical substance/The level of expressed mRNA in the absence of chemical substance (yeast gene YMR105C): 2.6 | The level of expressed mRNA in the presence of chemical substance/The level of expressed mRNA in the absence of chemical substance (yeast gene YMR189W): 0.8 | level of expressed mRNA in the presence/in the absence of chemical substance (yeast gene YMR205C): 0.5 | level of expressed mRNA in the presence/in the absence of chemical substance (yeast gene YMR261C): 1.1 | The level of expressed mRNA in the presence of chemical substance/The level of expressed mRNA in the absence of chemical substance (yeast gene YMR271C): 2.2 | The level of expressed mRNA in the presence of chemical substance/The level of expressed mRNA in the absence of chemical substance (yeast gene YMR296C): 0.7 | level of expressed mRNA in the presence/in the absence of chemical substance (yeast gene YMR323W): 0.6 | The level of expressed mRNA in the presence of chemical substance/The level of expressed mRNA in the absence of chemical substance (yeast gene YNL012W): 1.5 | level of expressed mRNA in the presence/in the absence of chemical substance (yeast gene YNL025C): 1.3 | The level of expressed mRNA in the presence of chemical substance/The level of expressed mRNA in the absence of chemical substance (yeast gene YNL045W): 1.1 | The level of expressed mRNA in the presence of chemical substance/The level of expressed mRNA in the absence of chemical substance (yeast gene YNL104C): 0.9 | The level of expressed mRNA in the presence of chemical substance/The level of expressed mRNA in the absence of chemical substance (yeast gene YNL106C): 0.9 | The level of expressed mRNA in the presence of chemical substance/The level of expressed mRNA in the absence of chemical substance (yeast gene YNL169C): 1.3 | level of expressed mRNA in the presence/in the absence of chemical substance (yeast gene YNL192W): 2.8 | The level of expressed mRNA in the presence of chemical substance/The level of expressed mRNA in the absence of chemical substance (yeast gene YNL231C): 4.0 | The level of expressed mRNA in the presence of chemical substance/The level of expressed mRNA in the absence of chemical substance (yeast gene YNL322C): 1.0 | The level of expressed mRNA in the presence of chemical substance/The level of expressed mRNA in the absence of chemical substance (yeast gene YNL331C): 1.3 | The level of expressed mRNA in the presence of chemical substance/The level of expressed mRNA in the absence of chemical substance (yeast gene YNL332W): 1.0 | The level of expressed mRNA in the presence of chemical substance/The level of expressed mRNA in the absence of chemical substance (yeast gene YNR019W): 2.0 | The level of expressed mRNA in the presence of chemical substance/The level of expressed mRNA in the absence of chemical substance (yeast gene YNR033W): 1.1 | The level of expressed mRNA in the presence of chemical substance/The level of expressed mRNA in the absence of chemical substance (yeast gene YNR059W): 2.2 | The level of expressed mRNA in the presence of chemical substance/The level of expressed mRNA in the absence of chemical substance (yeast gene YOL058W): 0.8 | level of expressed mRNA in the presence/in the absence of chemical substance (yeast gene YOL086C): 1.3 | level of expressed mRNA in the presence/in the absence of chemical substance (yeast gene YOL108C): 2.7 | level of expressed mRNA in the presence/in the absence of chemical substance (yeast gene YOL116W): 1.4 | The level of expressed mRNA in the presence of chemical substance/The level of expressed mRNA in the absence of chemical substance (yeast gene YOL126C): 2.4 | The level of expressed mRNA in the presence of chemical substance/The level of expressed mRNA in the absence of chemical substance (yeast gene YOL153C): 1.7 | level of expressed mRNA in the presence/in the absence of chemical substance (yeast gene YOL156W): 0.9 | The level of expressed mRNA in the presence of chemical substance/The level of expressed mRNA in the absence of chemical substance (yeast gene YOL165C): 1.0 | level of expressed mRNA in the presence/in the absence of chemical substance (yeast gene YOR002W): 1.1 | level of expressed mRNA in the presence/in the absence of chemical substance (yeast gene YOR085W): 0.9 | The level of expressed mRNA in the presence of chemical substance/The level of expressed mRNA in the absence of chemical substance (yeast gene YOR099W): 2.3 | level of expressed mRNA in the presence/in the absence of chemical substance (yeast gene YOR103C): 1.5 | level of expressed mRNA in the presence/in the absence of chemical substance (yeast gene YOR108W): 1.1 | level of expressed mRNA in the presence/in the absence of chemical substance (yeast gene YOR128C): 1.2 | The level of expressed mRNA in the presence of chemical substance/The level of expressed mRNA in the absence of chemical substance (yeast gene YOR130C): 1.1 | level of expressed mRNA in the presence/in the absence of chemical substance (yeast gene YOR142W): 1.0 | The level of expressed mRNA in the presence of chemical substance/The level of expressed mRNA in the absence of chemical substance (yeast gene YOR153W): 3.1 | level of expressed mRNA in the presence/in the absence of chemical substance (yeast gene YOR176W): 2.1 | level of expressed mRNA in the presence/in the absence of chemical substance (yeast gene YOR178C): 1.5 | level of expressed mRNA in the presence/in the absence of chemical substance (yeast gene YOR251C): 1.3 | The level of expressed mRNA in the presence of chemical substance/The level of expressed mRNA in the absence of chemical substance (yeast gene YOR336W): 1.0 | The level of expressed mRNA in the presence of chemical substance/The level of expressed mRNA in the absence of chemical substance (yeast gene YOR347C): 1.3 | level of expressed mRNA in the presence/in the absence of chemical substance (yeast gene YOR348C): 0.9 | The level of expressed mRNA in the presence of chemical substance/The level of expressed mRNA in the absence of chemical substance (yeast gene YPL017C): 0.8 | level of expressed mRNA in the presence/in the absence of chemical substance (yeast gene YPL028W): 1.8 | level of expressed mRNA in the presence/in the absence of chemical substance (yeast gene YPL057C): 2.0 | level of expressed mRNA in the presence/in the absence of chemical substance (yeast gene YPL135W): 1.7 | The level of expressed mRNA in the presence of chemical substance/The level of expressed mRNA in the absence of chemical substance (yeast gene YPL147W): 3.6 | level of expressed mRNA in the presence/in the absence of chemical substance (yeast gene YPL148C): 1.1 | The level of expressed mRNA in the presence of chemical substance/The level of expressed mRNA in the absence of chemical substance (yeast gene YPR026W): 1.3 | level of expressed mRNA in the presence/in the absence of chemical substance (yeast gene YPR113W): 1.9 | level of expressed mRNA in the presence/in the absence of chemical substance (yeast gene YPR165W): 2.7 | The level of expressed mRNA in the presence of chemical substance/The level of expressed mRNA in the absence of chemical substance (yeast gene YPR167C): 1.4 | level of expressed mRNA in the presence/in the absence of chemical substance (yeast gene YPR183W): 1.0
